Patent US20250179047A1, “5-[7-(3,4-DIHYDRO-1H-ISOQUINOLINE-2-CARBONYL)-1,2,3,4 TETRAHYDROISOQUINOLIN-6-YL]-1H-PYRROLE-3-CARBOXAMIDE DERIVATIVES, PHARMACEUTICAL COMPOSITIONS CONTAINING THEM AND THEIR USES AS PRO-APOPTOTIC AGENTS” (LES LABORATOIRES SERVIER, priority 2022, published 2025)

Tests used:
KMS-12-PE Bcl-2 WT = experiment: In vitro cytotoxicity CellTiter-Glo 48 h, KMS-12-PE Bcl-2 WT; type: cell-based; conditions: Homo sapiens, KMS-12-PE, C50 = concentration needed to reach 50% of the cellular viability
Summary of the method: (§1)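 Bcl-2 WT- and G101V-expressing KMS-12-PE cells; 48 h treatment at 37 °C, 5% CO2; CellTiter-Glo ATP luminescence; C50 from 11-point curves.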

BCL2 D103Y = BCL2 D103Y (Homo sapiens, UniProt P10415, D103Y); experiment: TR-FRET competitive binding assay, BCL2 D103Y; conditions: Ki determined from IC50, read-out: TR_FRET EKI_Bcl2 D103Y
Summary of the method: (§2)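 Competitive TR-FRET displacement of fluorescein-PUMA peptide (2 or 20 nM) from 0.5 nM terbium-labelled N-terminal Halo-fusion BCL2 (1-207, wild type or mutant) or BCLXL (2-196), expressed in E. coli. Buffer 50 mM Hepes pH 7.5, 150 mM NaCl, 5% DMSO; 2 h at 23°C. 520/495 nm ratio fitted over 11 points for IC50, converted to Ki.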

KMS-12-PE Bcl-2 G101V = experiment: In vitro cytotoxicity CellTiter-Glo 48 h, KMS-12-PE Bcl-2 G101V; type: cell-based; conditions: for Ratio (G101V/WT): C50 KMS-12-PE Bcl-2 G101V over C50 KMS-12-PE Bcl-2 WT; for IC50: Homo sapiens, KMS-12-PE, 48 h, CellTiter-Glo, C50 = concentration needed to reach 50% of the cellular viability
Summary of the method: as §1

BCL2 G101V [1] = target: BCL2 G101V (Homo sapiens, UniProt P10415, G101V); experiment: TR-FRET competitive binding assay, BCL2 G101V; conditions: BCL2 G101V; Ki determined from IC50; read-out: TR_FRET EKI_Bcl2 G101V
Summary of the method: as §2

BCL2 G101V [2] = experiment: TR-FRET competitive binding assay, BCL2 G101V; set-up: species or system human; conditions: ratio Ki BCL2 G101V / Ki BCL2 WT
Summary of the method: as §2

BCLXL WT = BCLXL WT (Homo sapiens (Human), UniProt Q07817); experiment: TR-FRET competitive binding assay, BCLXL WT; conditions: for Ki: BCLXL WT, Ki determined from IC50, read-out: TR_FRET EKI BclxL; for TR_FRET EKI BCLxL/WT selectivty ratio: ratio Ki BCLxL / Ki BCL2 WT
Sequence of BCLXL WT (Q07817 other isoform, or with tags, fused parts or gaps): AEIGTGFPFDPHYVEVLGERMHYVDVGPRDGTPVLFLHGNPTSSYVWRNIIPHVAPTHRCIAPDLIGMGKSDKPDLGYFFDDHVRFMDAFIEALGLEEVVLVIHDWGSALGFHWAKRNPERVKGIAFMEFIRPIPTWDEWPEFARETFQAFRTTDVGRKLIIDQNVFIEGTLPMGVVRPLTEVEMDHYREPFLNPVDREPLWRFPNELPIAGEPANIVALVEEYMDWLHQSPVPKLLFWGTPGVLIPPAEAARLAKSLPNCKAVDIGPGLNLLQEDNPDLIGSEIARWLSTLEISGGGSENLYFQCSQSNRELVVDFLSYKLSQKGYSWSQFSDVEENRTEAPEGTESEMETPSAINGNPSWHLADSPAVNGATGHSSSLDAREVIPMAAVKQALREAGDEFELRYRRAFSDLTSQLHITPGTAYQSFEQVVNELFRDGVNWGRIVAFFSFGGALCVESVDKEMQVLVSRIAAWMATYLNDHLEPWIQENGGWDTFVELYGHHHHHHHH
Summary of the method: as §2

BCL2 WT = BCL2 WT (Homo sapiens (Human), UniProt P10415); experiment: TR-FRET competitive binding assay, BCL2 WT; conditions: Ki determined from IC50, read-out: TR_FRET EKI_Bcl2 WT
Summary of the method: as §2

Structure (SMILES)	IC50 (KMS-12-PE Bcl-2 WT) [µM]	Ki (BCL2 D103Y) [nM]	Ratio (G101V/WT) (KMS-12-PE Bcl-2 G101V)	IC50 (KMS-12-PE Bcl-2 G101V) [µM]	Ki (BCL2 G101V [1]) [nM]	TR_FRET EKI G101V/WT selectivty ratio (BCL2 G101V [2])	Ki (BCLXL WT) [nM]	TR_FRET EKI BCLxL/WT selectivty ratio (BCLXL WT)	Ki (BCL2 WT) [nM]
Cc1c(C(=O)N(c2ccc(O)cc2)c2ccc3c(cnn3C)c2)cc(-c2cc3c(cc2C(=O)N2Cc4ccccc4C[C@H]2C)CN(C(=O)Cc2ccc(OCCN4CCOCC4)cc2)CC3)n1C [Example 90, N-(4-hydroxyphenyl)-1,2-dimethyl-5-(7-{[(3R)-3-methyl-3,4-dihydro-1H-isoquinolin-2-yl]carbonyl}-2-(2-{4-[2-(morpholin-4-yl)ethoxy]phenyl}acetyl)-3,4-dihydro-1H-isoquinolin-6-yl)-N-(1-methylindazol-5-yl)pyrrole-3-carboxamide]	0.0111	0.88	5.92	0.0657	0.8	3.4	4.5	18.0	0.25
Cc1c(N(C(=O)c2cc(-c3cc4c(cc3C(=O)N3Cc5ccccc5C[C@H]3CN3CCCCC3)CN(C(=O)Cc3ccc(OCCN5CCOCC5)cc3F)CC4)n(C)c2C)c2ccccc2)cc(C#N)n1C [Example 92, N-(5-cyano-1,2-dimethyl-pyrrol-3-yl)-5-[2-[2-[2-fluoro-4-(2-morpholinoethoxy)phenyl]acetyl]-7-[(3S)-3-(1-piperidylmethyl)-3,4-dihydro-1H-isoquinoline-2-carbonyl]-3,4-dihydro-1H-isoquinolin-6-yl]-1,2-dimethyl-N-phenyl-pyrrole-3-carboxamide]	0.0085	0.11	11.7	0.0974	0.9	30.7	8.5	303.6	0.03
Cc1c(N(C(=O)c2cc(-c3cc4c(cc3C(=O)N3Cc5ccccc5C[C@H]3C)CN(C(=O)Cc3ccc(OCCN5CCOC6(CC6)C5)cc3)CC4)n(C)c2C)c2ccc(O)cc2)cc(C#N)n1C [Example 93, N-(5-cyano-1,2-dimethyl-1H-pyrrol-3-yl)-N-(4-hydroxyphenyl)-1,2-dimethyl-5-{7-[(3R)-3-methyl-1,2,3,4-tetrahydroisoquinoline-2-carbonyl]-2-{2-[4-(2-{4-oxa-7-azaspiro[2.5]octan-7-yl}ethoxy)phenyl]acetyl}-1,2,3,4-tetrahydroisoquinolin-6-yl}-1H-pyrrole-3-carboxamide]	0.0053	0.34	3.45	0.0182	1.1	5.5	2.4	12.6	0.19
Cc1c(C(=O)N(c2ccc(O)cc2)c2cc(C#N)n(C(F)F)c2C)cc(-c2cc3c(cc2C(=O)N2Cc4ccccc4C[C@H]2C)CN(C(=O)Cc2ccc(OCCN4CCOCC4)cc2F)CC3)n1C [Example 94, N-[5-cyano-1-(difluoromethyl)-2-methylpyrrol-3-yl]-5-[2-(2-{2-fluoro-4-[2-(morpholin-4-yl)ethoxy]phenyl}acetyl)-7-{[(3R)-3-methyl-3,4-dihydro-1H-isoquinolin-2-yl]carbonyl}-3,4-dihydro-1H-isoquinolin-6-yl]-N-(4-hydroxyphenyl)-1,2-dimethylpyrrole-3-carboxamide]	0.0032	0.66	3.31	0.0107	1.1	5.0	3.3	15.0	0.22
Cc1c(C(=O)N(c2ccc(O)cc2)c2cc(C#N)n(C(F)F)c2C)cc(-c2cc3c(cc2C(=O)N2Cc4ccccc4C[C@H]2C)CN(C(=O)Cc2ccc(OCCN4CCOCC4)cc2)CC3)n1C [Example 95, N-[5-cyano-1-(difluoromethyl)-2-methylpyrrol-3-yl]-N-(4-hydroxyphenyl)-1,2-dimethyl-5-(7-{[(3R)-3-methyl-3,4-dihydro-1H-isoquinolin-2-yl]carbonyl}-2-(2-{4-[2-(morpholin-4-yl)ethoxy]phenyl}acetyl)-3,4-dihydro-1H-isoquinolin-6-yl)pyrrole-3-carboxamide]	0.0048	0.46	4.11	0.0196	0.6	3.2	3.9	21.7	0.18
Cc1c(N(C(=O)c2cc(-c3cc4c(cc3C(=O)N3Cc5ccccc5C[C@H]3CN3CCCC3)CN(C(=O)Cc3ccc(OCCC5CCOCC5)cc3)CC4)n(C)c2C)c2ccc(O)cc2)cc(C#N)n1C [Example 99, N-(5-cyano-1,2-dimethylpyrrol-3-yl)-N-(4-hydroxyphenyl)-1,2-dimethyl-5-[2-(2-{4-[2-(oxan-4-yl)ethoxy]phenyl}acetyl)-7-{[(3S)-3-(pyrrolidin-1-ylmethyl)-3,4-dihydro-1H-isoquinolin-2-yl]carbonyl}-3,4-dihydro-1H-isoquinolin-6-yl]pyrrole-3-carboxamide]	0.0105	0.14	7.27	0.0763	0.3	5.2	2.8	52.8	0.05
Cc1c(N(C(=O)c2cc(-c3cc4c(cc3C(=O)N3Cc5ccccc5C[C@H]3CN3CCCC3)CN(C(=O)Cc3ccc(OCCN5CCOCC5)cc3F)CC4)n(C)c2C)c2ccc(O)cc2)cc(C#N)n1C [Example 100, N-(5-cyano-1,2-dimethylpyrrol-3-yl)-5-[2-(2-{2-fluoro-4-[2-(morpholin-4-yl)ethoxy]phenyl}acetyl)-7-{[(3S)-3-(pyrrolidin-1-ylmethyl)-3,4-dihydro-1H-isoquinolin-2-yl]carbonyl}-3,4-dihydro-1H-isoquinolin-6-yl]-N-(4-hydroxyphenyl)-1,2-dimethylpyrrole-3-carboxamide]	0.0156	0.06	4.23	0.066	0.2	8.9	2.3	127.8	0.02
Cc1c(N(C(=O)c2cc(-c3cc4c(cc3C(=O)N3Cc5ccccc5C[C@H]3CN3CCCCC3)CN(C(=O)Cc3ccc(OCCN(C)CC5COC5)cc3F)CC4)n(C)c2C)c2ccc(O)cc2)cc(C#N)n1C [Example 103, N-(5-cyano-1,2-dimethyl-1H-pyrrol-3-yl)-5-(2-{2-[2-fluoro-4-(2-{methyl[(oxetan-3-yl)methyl]amino}ethoxy)phenyl]acetyl}-7-[(3S)-3-[(piperidin-1-yl)methyl]-1,2,3,4-tetrahydroisoquinoline-2-carbonyl]-1,2,3,4-tetrahydroisoquinolin-6-yl)-N-(4-hydroxyphenyl)-1,2-dimethyl-1H-pyrrole-3-carboxamide]	0.006	0.09	6.66	0.0399	0.2	6.5	1.1	35.5	0.03
Cc1c(N(C(=O)c2cc(-c3cc4c(cc3C(=O)N3Cc5ccccc5C[C@H]3CN3CCCCC3)CN(C(=O)Cc3ccc(OCCN(C)CC5COC5)cc3)CC4)n(C)c2C)c2ccc(O)cc2)cc(C#N)n1C [Example 104, N-(5-cyano-1,2-dimethyl-1H-pyrrol-3-yl)-N-(4-hydroxyphenyl)-1,2-dimethyl-5-(2-{2-[4-(2-{methyl[(oxetan-3-yl)methyl]amino}ethoxy)phenyl]acetyl}-7-[(3S)-3-[(piperidin-1-yl)methyl]-1,2,3,4-tetrahydroisoquinoline-2-carbonyl]-1,2,3,4-tetrahydroisoquinolin-6-yl)-1H-pyrrole-3-carboxamide]	0.0166	0.17	5.38	0.0893	0.4	5.8	2.6	40.0	0.07
Cc1c(N(C(=O)c2cc(-c3cc4c(cc3C(=O)N3Cc5ccccc5C[C@H]3CN3CCCCC3)CN(C(=O)Cc3ccc(OCCN(C)C5COC5)cc3)CC4)n(C)c2C)c2ccc(O)cc2)cc(C#N)n1C [Example 106, N-(5-cyano-1,2-dimethyl-1H-pyrrol-3-yl)-N-(4-hydroxyphenyl)-1,2-dimethyl-5-{2-[2-(4-{2-[methyl(oxetan-3-yl)amino]ethoxy}phenyl)acetyl]-7-[(3S)-3-[(piperidin-1-yl)methyl]-1,2,3,4-tetrahydroisoquinoline-2-carbonyl]-1,2,3,4-tetrahydroisoquinolin-6-yl}-1H-pyrrole-3-carboxamide]	0.0107	0.19	4.53	0.0485	0.3	6.2	1.8	36.0	0.05
